Reference: US10920191B2, “Methods of screening embryonic progenitor cell lines” (LINEAGE CELL THERAPEUTICS, INC., priority 2008, dated 2021)

Experiments:
Format in all cases: cell-based, human
cell line Z2 = experiment: Differentiation of cell line Z2 with individual differentiation factors, Illumina microarray readout
From the text: (§1) To reduce variations in gene expression due to cell cycle artifacts, and to capture an early gene expression profile of the cells, upon being expanded to six well plates, on the day the cells reached confluence, the cells were placed in media with a reduction of serum to 0.5% in the case where the original serum concentration was >5%. In all other cases, serum and/or other growth factors was reduced to 10% of their original values. These quiescence conditions were imposed for five days and all cultures were re-fed two days prior to harvest to reduce feeding difference artifacts. So, by way of example, if the original media was DMEM medium with 10% FCS, then the quiescence synchronization media was DMEM with 0.5% FCS. Total RNA was extracted directly from cells growing in 6-well or 6 cm tissue culture plates using Qiagen Rneasy mini kits according to the manufacturer's instructions. RNA concentrations were measured using a Beckman DU530 or Nanodrop spectrophotometer and RNA quality determined by denaturing agarose gel electrophoresis or an Agilent 2100 bioanalyzer. Whole-genome expression analysis was carried out using Affymetrix Human Genome U133 Plus 2.0 GeneChip® system, Illumina Human-6 v1 and HumanRef-8 v1 Beadchips (Illumina 1), and Illumina Human-6 v2 Beadchips (Illumina 2), and RNA levels for certain genes were confirmed by quantitative PCR. For Illumina BeadArrays, total RNA was linearly amplified and biotin-labeled using Illumina TotalPrep kits (Ambion), and cRNA was quality controlled using an Agilent 2100 Bioanalyzer. cRNA was hybridized to Illumina BeadChips, processed, and read using a BeadStation array reader according to the manufacturer's instructions (Illumina). Relative Fluorescence Unit (RFU) values for all of the cell lines with common probe sets were quantile normalized.
The cell lines of the present invention 7SMOO7 (also designated ACTC298 and used at P18), C4.4 (also designated ACTC87 and used at P14), E44 (also designated ACTC170 and used at P18), E69 (also designated ACTC101 and used at P15), SK17 (also designated ACTC162 and used at P14), SK31 (also designated ACTC164 used at P15), SM35 (also designated ACTC260 used at P12), T36 (also designated ACTC198 used at P19), T43 (also designated ACTC120 used at P17), W11 (also designated ACTC197 used at P12), and Z2 (also designated ACTC255 used at P12), are cultured to five day quiescence as described herein or alternatively exposed to differentiation conditions of Differentiation Factor Protocol I in Table VIII. […] RNA was isolated as described herein and analyzed by Illumina microarrays. […]

cell line SK17 = experiment: Differentiation of cell line SK17 with individual differentiation factors, Illumina microarray readout; settings: SK17, after day 14, retinoic acid added (1.0 uM)
From the text: as §1, with “So, by way of example, if the original media was DMEM medium with 10% FCS, then the quiescence synchronization media was DMEM with 0.5% FCS. Total RNA was extracted directly from cells growing in 6-well or 6 cm tissue culture plates using Qiagen Rneasy mini kits according to the manufacturer's instructions.” left out, “Relative Fluorescence Unit (RFU) values for all of the cell lines with common probe sets were quantile normalized.” left out

cell line B16 = experiment: Differentiation of cell line B16 in gels containing crosslinked hyaluronic acid and gelatin; settings: B16, hyaluronic acid/gelatin hydrogel, in the presence of retinoic acid
From the text: The cell line of the present invention designated B16 (ACTC59) that expresses the unique pattern of markers MKX (accession number NM_173576.1), CDH10 (accession number NM_006727.2), MEG3 (accession number NR_002766.1), SCUBE3 (accession number NM_152753.2), and distal HOX genes HOXA11 (accession number NM_000522.3), and HOXD11 (accession number NM_021192.2) when synchronized at quiescence as described herein by culturing 5 days at confluence in DMEM medium with 0.5% serum at passage 16-19 was differentiated in micromass conditions and in a hydrogel containing crosslinked hyaluronic acid and gelatin with supplemented growth factors from Table III as described in Table VIII under the headings “In vitro conditions to induce chondrogenenesis—Micromass Culture” and “Differentiation in gels containing crosslinked hyaluronic acid and gelatin” in the presence of TGFβ3 and retinoic acid as also described in Table VIII under the subheadings “Differentiation in Hydrogels Containing Crosslinked Hyaluronic Acid and Gelatin to Induce Chondrogenesis” and “Retinoic acid and EGF-Containing HyStem-CSS” respectively. […]

W10 cell line = experiment: Differentiation of cell line W10, two weeks of culture with retinoic acid; settings: 1.0 uM all trans retinoic acid
From the text: The HAND2 and SCARA5 positive cell line W10 (also known as ACTC196) whose most distal HOX gene expression was HOXA4, B7, which is described in U.S. patent application Ser. No. 12/504,630 filed on Jul. 16, 2009 and titled “Methods to Accelerate the Isolation of Novel Cell Strains from Pluripotent Stem Cells and Cells Obtained Thereby”, incorporated herein by reference in its entirety, and whose gene expression markers at 18-21 doublings of clonal expansion are disclosed in Table 1, was passaged to P14. […] cells for 14 days under conditions described as In vitro conditions to induce chondrogenenesis—Micromass Culture in Table VIII, that are expected to cause chondrogenic differentiation in cells capable of such differentiation. […] The presence of MYH11 was confirmed by immunocytochemistry.

[1] = Z2 (P12), 14 days, EGF 100 ng/ml, RFU >150 considered positive

CC1=C(/C=C/C(C)=C/C=C/C(C)=C/C(=O)O)C(C)(C)CCC1 [retinoic acid, all-trans retinoic acid]
BMP7 expression by microarray (cell line Z2; Z2, 14 days, 1.0 uM retinoic acid): 271 RFU
MYH11 (smooth muscle marker) expression by microarray (cell line SK17): 1715 RFUs
renin (REN) expression by microarray (cell line SK17): markedly upregulated
NPPB (natriuretic peptide precursor B) expression (cell line B16): 11,851 RFUs
MYH11 expression (W10 cell line): induction of MYH11

bFGF: growth factor used as individual differentiation factor
BMP7 expression by microarray (cell line Z2; Z2, 14 days, 10 ng/mL bFGF): 196 RFU

recombinant human EGF: recombinant human EGF used as differentiation factor
BMP2 expression by microarray (cell line Z2; [1]): 1015 RFU
BMP7 expression by microarray (cell line Z2; [1]): 1084 RFU
